Results published in patent US10435375B2, “CXCR4 chemokine receptor modulators” (NORTHWESTERN UNIVERSITY, priority 2015, dated 2019).
“Also recorded” adds a separate entry of the source.

Experiments:
CXCR4 [1] = molecular target: T1, CXCR4 (Homo sapiens, UniProt P61073); assay: Calcium imaging ((Ca)i mobilization) assay, fura-2, C8161 melanoma cells; type: cell-based; design: human melanoma cell line C8161 was initially used, which expresses numerous human CXCR4 receptors; endogenous in cells; host or cells: C8161 human melanoma cells; conditions: for effect on SDF-1-induced (Ca)i response: test compounds 10 μM; for Pharmacology: Table 2, agonist or antagonist; for IC50: multiple concentrations, dose-response, read-out: estimated IC50 (antagonism of SDF-1 (Ca)i response); for Ca^2+ Assay: Table 1, calcium imaging behavior; for compound's (Ca)i response in presence of CXCR4 antagonist AMD3100: AMD3100 1 μM where stated; for own (Ca)i response (agonist effect): compounds 10 μM where stated, SDF-1 100 nM
T1 sequence (P61073 whole entry): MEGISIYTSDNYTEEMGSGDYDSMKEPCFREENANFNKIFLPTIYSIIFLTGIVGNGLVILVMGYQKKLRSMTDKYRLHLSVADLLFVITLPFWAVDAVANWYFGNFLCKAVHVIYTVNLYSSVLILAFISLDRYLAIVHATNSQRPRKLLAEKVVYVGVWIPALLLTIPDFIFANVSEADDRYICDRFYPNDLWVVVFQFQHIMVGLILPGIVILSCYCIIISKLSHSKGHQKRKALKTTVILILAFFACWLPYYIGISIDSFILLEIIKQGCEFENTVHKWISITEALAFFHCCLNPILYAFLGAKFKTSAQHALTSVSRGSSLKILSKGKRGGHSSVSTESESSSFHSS
Description: The initial assay for examining the activity of different molecules was based on the fact that activation of CXCR4 receptors produces an increase in the intracellular free Ca^2+ concentration (Ca)i. This signal can easily be observed using a fluorescent Ca^2+ sensing dye such as fura-2. The quantitative nature of this assay makes it ideal for screening purposes. Moreover, the assay can also distinguish potential antagonists from potential agonists. The aggressive human melanoma cell line C8161 was initially used, which expresses numerous human CXCR4 receptors and produces strong (Ca)I signals when stimulated with SDF-1 (FIG. 3). In the assay, cells were usually stimulated twice with SDF-1. […] To test a drug, the compound in question was usually added prior to the second stimulation with SDF-1. At this point it was possible to observe whether the compound itself acted as an agonist by giving its own response or if it reduced the magnitude of the second response to SDF-1. […] Each of the four antagonists were then assayed at multiple concentrations to obtain a dose-response relationship and an estimated IC50. Antagonists NUCC-388, 397, 392, and 51420 had IC50 values of 0.3 μM, 3 μM, 1 μM, and 1 μM respectively.

CXCR4-YFP = molecular target: T2, CXCR4-YFP (Homo sapiens, UniProt P61073); assay: Internalization of YFP-tagged CXCR4 receptors in HEK293 cells; type: cell-based; conditions: for inhibition of NUCC-390-induced CXCR4-YFP internalization: AMD3100 1 μM; for CXCR4-YFP receptor internalization: 2 hours, SDF-1 100 nM, NUCC-390 10 μM
T2 construct: expressed in transfected cells; host or cells: HEK293 cells
T2 sequence (P61073 whole entry): as above

U937 cells = assay: Cell viability assay, U937 cells, with Ara-C; type: cell-based
Experimental: FIG. 20. Cell viability assay with agonist NUCC-390 and known chemotherapeutics. The first bar is viability no NUCC-390 or Ara-C. Otherwise, the concentration of NUCC-390 was maintained at 50 μM in all experiments. U937 cells were treated with NUCC-390 and the indicated concentration of Ara-C.

C8161 cells = assay: Chemotaxis of C8161 cells, Boyden chamber assay; type: cell-based, human; conditions: SDF-1 100 nM, NUCC-390 10 μM, p<0.01, n=6
Description: Chemokines are well known for their ability to stimulate chemotaxis of leukocytes and stem cells. In order to further establish the biological activity of the CXCR4 agonists, the ability of SDF-1 and NUCC-390 to produce chemotaxis of C8161 cells was compared using a Boyden chamber assay.

CXCR4 [2] = molecular target: T1, CXCR4; assay: ERK activation (pERK, Western blot) in C8161 cells; type: cell-based; design: human melanoma cell line C8161 was initially used, which expresses numerous human CXCR4 receptors; endogenous in cells; host or cells: C8161 human melanoma cells; conditions: SDF-1 100 nM, NUCC-390 10 μM, 30 min
Description: To further explore the agonist potential of compound NUCC-390, changes in signaling downstream of CXCR4 were examined. For these experiments, lysates were collected from treated C8161 cells and analyzed them using Western blot. […] That drug NUCC-390 has the capability of stimulating signaling activity downstream of CXCR4 receptors further supports the observation that NUCC-390 acts as a CXCR4 agonist.

CXCR4 [3] = molecular target: T1, CXCR4; assay: (Ca)i mobilization assay using CXCR4 expressing U87 cells; type: cell-based; design: host or cells: U87 glioblastoma cells
[4] = C8161 cells, listed as NUCC-390
[5] = C8161 cells, listed as NUCC-398

Row | effect on SDF-1-induced (Ca)i response (CXCR4 [1]; C8161 cells) | Pharmacology (CXCR4 [1]) | Ca^2+ Assay (CXCR4 [1]) | own (Ca)i response (agonist effect) (CXCR4 [1]; C8161 cells) | Compound | also measured
1 |  | Agonist |  |  | Cc1ncsc1CCn1nc(C(=O)NC2CC2)c2c1CCN(Cc1ccc3c(c1)OCO3)C2 [NUCC-0000387] | 
2 |  | Antagonist | Antagonist |  | CN(C)CCNC1CCc2c(c(C(=O)N(C)Cc3ccccc3)nn2C)C1 (stereo not drawn) [NUCC-0000388] | inhibition of NUCC-390-induced (Ca)i response (CXCR4 [1]; C8161 cells): inhibited; IC50 (CXCR4 [1]; C8161 cells): 300 nM; effect on SDF-1-induced (Ca)i response (CXCR4 [1]; C8161 cells, listed as NUCC-388): antagonized the effects of SDF-1; also recorded: blocks the effect of SDF-1; also recorded: completely inhibited the second addition of SDF-1; inhibition of NUCC-390-induced CXCR4-YFP internalization (CXCR4-YFP): completely inhibited
3 |  | Agonist | Agonist |  | CCCn1nc(C(=O)N2CCCCC2)c2c1CCC(NCCc1ccncc1)C2 (stereo not drawn) [NUCC-0000390, Piperidin-1-yl(1-propyl-5-((2-(pyridin-4-yl)ethyl)amino)-4,5,6,7-tetrahydro-1H-indazol-3-yl)methanone] | compound's (Ca)i response in presence of CXCR4 antagonist AMD3100 (CXCR4 [1]; [4]): completely inhibited; also recorded: completely blocked by AMD3100; own (Ca)i response (agonist effect) (CXCR4 [1]; [4]): produced their own response; also recorded: effects were similar to those produced by SDF-1; also recorded: strong (Ca)i response; also recorded: produced agonist effects; effect on cell viability, compound alone (U937 cells; NUCC-390 50 μM): only a modest effect by itself; effect on cytotoxicity of Ara-C in combination (U937 cells; NUCC-390 50 μM plus Ara-C): significantly increased the cytotoxicity of Ara-C; chemotaxis (C8161 cells): matched by the effects of NUCC-390; CXCR4-YFP receptor internalization (CXCR4-YFP): causes most of the CXCR4 receptor to become internalized; level of phosphorylated ERK (pERK) (CXCR4 [2]): increased levels of pERK; also recorded: Increase in pERK
4 | antagonized the effects of SDF-1 | Antagonist |  |  | COC(=O)c1c(NC(=O)C2CCOC2)c2cc(NCC(C)Cc3ccc4c(c3)OCO4)cnc2n1CCCc1ccccc1 (stereo not drawn) [NUCC-0000392] | IC50 (CXCR4 [1]; C8161 cells): 1000 nM
5 |  |  | Antagonist |  | COC(=O)c1c(NC(=O)[C@H]2CCOC2)c2cc(NC[C@H](C)Cc3ccc4c(c3)OCO4)cnc2n1CCCc1ccccc1 [NUCC-0000392] | 
6 |  | Agonist |  |  | COCCn1c(C(=O)OC)c(NC(=O)CCc2ccccc2)c2cc(NCCC(C)c3ccccc3)cnc21 (stereo not drawn) [NUCC-0000393] | 
7 |  | Agonist | Agonist |  | COCCNC(=O)c1nn(CCC(C)C)c2c1CN(Cc1ncc[nH]1)CC2 [NUCC-0000398, 5-((1H-imidazol-2-yl)methyl)-1-isopentyl-N-(2-methoxyethyl)-4,5,6,7-tetrahydro-1H-pyrazolo(4,3-c)pyridine-3-carboxamide] | compound's (Ca)i response in presence of CXCR4 antagonist AMD3100 (CXCR4 [1]; [5]): completely inhibited; also recorded: inhibited by AMD3100; own (Ca)i response (agonist effect) (CXCR4 [1]; [5]): produced their own response; also recorded: robust agonist activity; also recorded: Agonist effects
8 |  | Agonist | Antagonist | robust agonist activity | CCCn1nc(C(=O)N2CCCCC2)c2c1CCC(NCCc1cccnc1)C2 (stereo not drawn) [NUCC-0054118, Piperidin-1-yl(1-propyl-5-((2-(pyridin-3-yl)ethyl)amino)-4,5,6,7-tetrahydro-1H-indazol-3-yl)methanone] | compound's (Ca)i response in presence of CXCR4 antagonist AMD3100 (CXCR4 [1]; C8161 cells): inhibited by AMD3100
9 | antagonized the effects of SDF-1 | Antagonist | Agonist |  | CCCn1nc(C(=O)N2CCCCC2)c2c1CCC(NCCCN1CCCC1=O)C2 (stereo not drawn) [NUCC-0054120, 1-(3-((3-(Piperidine-1-carbonyl)-1-propyl-4,5,6,7-tetrahydro-1H-indazol-5-yl)amino)propyl)pyrrolidin-2-one] | IC50 (CXCR4 [1]; C8161 cells): 1000 nM
10 |  | Agonist | Agonist | robust agonist activity | CCCn1nc(C(=O)N2CCCCC2)c2c1CCC(NCCCN1CCOCC1)C2 (stereo not drawn) [NUCC-0054127] | compound's (Ca)i response in presence of CXCR4 antagonist AMD3100 (CXCR4 [1]; C8161 cells): inhibited by AMD3100
11 | blocks the effect of SDF-1 | Antagonist |  |  | Cn1nc(C(=O)N2CCCCC2)c2c1CCC(NCCCN1CCOCC1)C2 (stereo not drawn) [NUCC-0176288] | own (Ca)i response (agonist effect) (CXCR4 [3]): robust calcium response
12 | blocks the effect of SDF-1 | Antagonist |  | robust calcium response | Cn1nc(C(=O)N2CCCCC2)c2c1CCC(NCc1ccc(F)cc1)C2 (stereo not drawn) [NUCC-0176290] | 
13 | blocks the effect of SDF-1 | Antagonist |  |  | CCCn1nc(C(=O)N(C)Cc2ccccc2)c2c1CCC(NCCc1ccncc1)C2 (stereo not drawn) [NUCC-0176299] | own (Ca)i response (agonist effect) (CXCR4 [3]): robust calcium response
14 |  | Agonist |  | robust calcium response | CCCn1nc(C(=O)N(C)Cc2ccccc2)c2c1CCC(NCCCN1CCOCC1)C2 (stereo not drawn) [NUCC-0176301] | compound's (Ca)i response in presence of CXCR4 antagonist AMD3100 (CXCR4 [1]; C8161 cells): prevented calcium signaling
15 |  | Agonist |  | robust calcium response | CCCn1nc(C(=O)N(C)Cc2ccccc2)c2c1CCC(NCc1ccc(F)cc1)C2 (stereo not drawn) [NUCC-0176303] | 
16 |  | Agonist |  | robust calcium response | CCCn1nc(C(=O)N2CCCCC2)c2c1CCC(NCc1ccc(F)cc1)C2 (stereo not drawn) [NUCC-0176306] | compound's (Ca)i response in presence of CXCR4 antagonist AMD3100 (CXCR4 [1]; C8161 cells): prevented calcium signaling
17 |  | Agonist |  | robust calcium response | CCCn1nc(C(=O)N(C)C)c2c1CCC(NCCc1cccnc1)C2 (stereo not drawn) [NUCC-0176308] | compound's (Ca)i response in presence of CXCR4 antagonist AMD3100 (CXCR4 [1]; C8161 cells): prevented calcium signaling
18 |  | Agonist |  | robust calcium response | CCCn1nc(C(=O)N(C)C)c2c1CCC(NCCCN1CCCC1=O)C2 (stereo not drawn) [NUCC-0176311] | 
19 |  |  |  | two strong (Ca)i responses | SDF-1: cognate agonist for CXCR4, the 93 amino acid protein CXCL12 (SDF-1) | chemotaxis (C8161 cells): robust chemotactic activity; CXCR4-YFP receptor internalization (CXCR4-YFP): pronounced internalization of CXCR4-YFP; also recorded: causes most of the CXCR4 receptor to become internalized; level of phosphorylated ERK (pERK) (CXCR4 [2]): increased levels of phosphorylated ERK; also recorded: Increase in pERK

Row | Compound | effect on SDF-1-induced (Ca)i response (CXCR4 [1]; C8161 cells) | Pharmacology (CXCR4 [1]) | Ca^2+ Assay (CXCR4 [1]) | own (Ca)i response (agonist effect) (CXCR4 [1]; C8161 cells) | also measured
20 | c1cc(CN2CCCNCCNCCCNCC2)ccc1CN1CCCNCCNCCCNCC1 [AMD3100, reference compound] | completely blocked stimulation with SDF-1; also recorded: blocked the effects of SDF-1 |  |  |  | inhibition of NUCC-390-induced CXCR4-YFP internalization (CXCR4-YFP): blocks internalization; inhibition of NUCC-390-induced CXCR4-YFP internalization (CXCR4-YFP; listed as AMD-3100): completely inhibited
